Source: patent US12187752B2, “Solid forms and combination compositions comprising a beta-lactamase inhibitor and uses thereof” (priority 2017, dated 2025)
Read-outs that look alike come from different tables or passages of the source.

Experiments:
[1] = Polymorph and hydrate screen: physical stability of solid forms (AAC, drying); type: physicochemical; details: 40° C. and 75% RH for 2 days
Procedure: The solids obtained from the various crystallization experiments were analyzed by High Throughput XRPD (HT-XRPD). If relevant, the mother liquors were allowed to evaporate completely, and the remaining solids were analyzed by HT-XRPD. Subsequently, all solids were exposed to accelerated aging conditions for 48 hours at 40° C. and 75% RH (AAC).
From the polymorph screen, four novel diffractograms were identified in addition to the two known forms of Compound 1-dihydrochloride, Form 1 and Form 2. Form 1 was the most abundant solid form found in this polymorph screen. The novel diffractograms were designated Forms 3, 4, 5 and 6. All these forms were found with low frequency and were poorly crystalline. […] The HT-XRPD patterns of the new Forms 3, 4, 5 and 6 are shown in FIG. 12, FIG. 13, FIG. 14, and FIG. 15, respectively.
After completion of the equilibration time, the remaining solids were analyzed by HT-XRPD dry under ambient conditions and dried under vacuum. The mother liquors were analyzed by Karl Fisher titration for water content determination. […] The solutions from these experiments were evaporated under vacuum (200 mBar) and the obtained dried solids analyzed by HT-XRPD. All the solids were then exposed to 40° C. and 75% RH for two days.

[2] = Human pharmacokinetic and PK/PD target attainment estimates; type: in vivo
Description: (§1) The results from in vitro and in vivo nonclinical PK/PD studies, the human PK data collected in the Phase 1 Study, and human plasma binding data were used to determine human therapeutic doses required for PK/PD target attainment.

[3] = Stability of aqueous solutions of combination formulation at pH 5.0; type: physicochemical; details: pH 5.0 at 25° C., 24 hours
human serum protein = test: In vitro human serum protein binding; type: in vitro ADME
Description: as §1

[4] = In vitro human serum protein binding; type: in vitro ADME; details: human
Description: as §1

[5] = Aqueous solubility as a function of pH (phosphate buffers, HPLC-UV); type: physicochemical; details: aqueous buffer, thermodynamic from solid; for solubility at 4 h: read-out: Conc. (mg/ml) 4 hours; for solubility thermodynamic at 24 h: read-out: Conc. (mg/ml) 24 hours
Procedure: A known amount of Compound 1 was weighed directly into 5 ml vials and 1 ml of each phosphate buffer was added; the solutions obtained were kept at controlled temperature (25° C.) and magnetically stirred up to 24 hours. Aliquots of obtained suspensions or solutions were centrifuged (14000 rpm 10 minutes) and withdrawn at two predefined time points (4 hours and 24 hours) appropriately diluted and analyzed by HPLC-UV using the analytical method parameters summarized in the Table 9.

DSC analysis of Form 1 = type: physicochemical; details: DSC trace
Procedure: Melting properties were obtained from DSC thermograms, recorded with a heat flux DSC822e instrument (Mettler-Toledo GmbH, Switzerland). The DSC822e was calibrated for temperature and enthalpy with a small piece of indium (melting point at 156.6 C; ΔHf=28.45 J·g−1). Samples were sealed in standard 40 μl aluminum pans, pin-holed and heated in the DSC from 25° C. to 300° C., at a heating rate of 10° C. min-1. Dry N2 gas, at a flow rate of 50 ml min−1 was used to purge the DSC equipment during measurement.
This event corresponds to the onset of dehydration of the monohydrate. This dehydration process is followed by the decomposition of the compound at about 290° C. signaled by a large endothermic event. It is concluded from this experiment that Form 1 is stable to elevated temperature, up to approximately 50° C.

[6] = Dynamic vapor sorption analysis; type: physicochemical; details: 25° C.
Procedure: Differences in hygroscopicity (moisture uptake) of the various forms of a solid material provided a measure of their relative stability at increasing relative humidity. Moisture sorption isotherms of small samples were obtained using a DVS-1 system from Surface Measurement Systems (London, UK); this instrument is suitable for use with as little as a few milligrams of sample, with an accuracy of 0.1 μg. The following humidity profile was applied: The relative humidity was cycled from 45% to 95% (sorption), back to 0% (desorption) and to 45%, at a constant temperature of 25° C. […] Weight equilibration per step was set with a minimum holding time of 1 hour. At the end of the DVS experiments, the recovered solid material was measured by HT-XRPD. Compound 1-dihydrochloride monohydrate was analyzed by dynamic vapor sorption (FIG. 6). The material was subjected to an isothermal desorption/sorption profile starting at 45%-95%-0%-45% relative humidity levels (step 5% at low relative humidity (RH)) at 25° C. The temperature was maintained constant at approximately 25° C. for the duration of the experiment. […] It can be seen that the mass uptake is rather small and that at high humidity level Compound 1-dihydrochloride remained as Form 1. This is confirmed by the mass stability and the VH-XRPD experiment conducted (see FIG. 7). […]

[7] = Physical stability of Compound 1-dihydrochloride at four temperature/RH conditions; type: physicochemical; details: four temperature/RH conditions, 4 weeks
Procedure: A physical stability study of Compound 1-dihydrochloride (mixture of Form 1 and Form 2) was conducted. A solid sample of Compound 1-dihydrochloride was incubated under four relative humidity and temperature conditions: 5° C./ambient RH, 25° C./60% RH, 30° C./65% RH and 40° C./75% RH. At regular intervals, the compound was analyzed by HR-XRPD and TGMS. […] The water content is in line with the monohydrate nature of Compound 1-dihydrochloride Form 1. The TGMS analyses recorded for the 2 weeks and 1-month incubation is also along the 3.8% of water (1 molecule of water per molecule of API).

[8] = Variable humidity XRPD analysis; type: physicochemical; details: VH-XRPD, sorption; dihydrochloride
Procedure: To confirm the hypothesis of a solid form change between 40% and 0% relative humidity levels a variable humidity XRPD (VH-XRPD) analysis was performed. The sample was subjected to a humidity profile of 45-75-20-15-10-30-35-45% relative humidity levels at 30° C. At each step, two diffractograms were recorded. The first diffractogram was recorded when the target humidity was reached and the second after the sample had equilibrated for 1 hour at each humidity level. […] The most intense peaks of Form 1 (dihydrochloride monohydrate) are in the range between 9.5 and 24.5° 2θ.
The measured RH level and the kind of ongoing RH variation step (sorption or desorption) is found on the right hand side. […] Upon desorption, the material was converted between 20% and 15% relative humidity to Form 2, the anhydrous form. Upon sorption, Form 2 converted back to Form 1 between 30% and 35% relative humidity.

## NCCN[C@H]1CC[C@H](CC(=O)N[C@H]2Cc3cccc(C(=O)O)c3OB2O)CC1 [Compound 1, (R)-3-(2-(trans-4-(2-aminoethylamino)cyclohexyl)acetamido)-2-hydroxy-3,4-dihydro-2H-benzo[e][1,2]oxaborinine-8-carboxylic acid]
[1]
  Physical stability upon exposure to AAC: Stable
[2]; Dose Level 250 (q8 hr)
  Total AUC0-24: 123 µg·h/mL
  fAUC0-24: 77 µg·h/mL
[2]; Dose Level 500 (q8 hr)
  Total AUC0-24: 248 µg·h/mL
  fAUC0-24: 156 µg·h/mL
[3]
  % present, Compound 1: 100%
Human serum protein
  free fraction: 63%
[4]
  fraction unbound: 0.63

## Cl.Cl.NCCN[C@H]1CC[C@H](CC(=O)N[C@H]2Cc3cccc(C(=O)O)c3OB2O)CC1 [Form 1, (R)-3-(2-(trans-4-(2-aminoethylamino)cyclohexyl)acetamido)-2-hydroxy-3,4-dihydro-2H-benzo[e][1,2]oxaborinine-8-carboxylic acid dihydrochloride]
[5]; Phosphate Buffer pH 4, pH (4 h) 3.9, 25° C.
  solubility at 4 h: > 143 mg/mL
[5]; Phosphate Buffer pH 4, pH (24 h) 3.9, 25° C.
  solubility thermodynamic at 24 h: 133 mg/mL
[5]; Phosphate Buffer pH 5, pH (4 h) 4.9, 25° C.
  solubility at 4 h: > 135 mg/mL
[5]; Phosphate Buffer pH 5, pH (24 h) 4.9, 25° C.
  solubility thermodynamic at 24 h: 107 mg/mL
[5]; Phosphate Buffer pH 6, pH (4 h) 6.2, 25° C.
  solubility at 4 h: > 135 mg/mL
[5]; Phosphate Buffer pH 6, pH (24 h) 6.2, 25° C.
  solubility thermodynamic at 24 h: 102 mg/mL
[5]; Phosphate Buffer pH 7, pH (4 h) 7.1, 25° C.
  solubility at 4 h: > 133 mg/mL
[5]; Phosphate Buffer pH 7, pH (24 h) 7.0, 25° C.
  solubility thermodynamic at 24 h: 87.8 mg/mL
[5]; Phosphate Buffer pH 8, pH (4 h) 8.1, 25° C.
  solubility at 4 h: > 127 mg/mL
[5]; Phosphate Buffer pH 8, pH (24 h) 8.1, 25° C.
  solubility thermodynamic at 24 h: 68.3 mg/mL
[5]; Phosphate Buffer pH 9, pH (4 h) 8.7, 25° C.
  solubility at 4 h: > 109 mg/mL
[5]; Phosphate Buffer pH 9, pH (24 h) 8.9, 25° C.
  solubility thermodynamic at 24 h: 61.4 mg/mL
DSC analysis of Form 1
  Temperature up to which the form is stable (onset of dehydration): approximately 50 °C
[6]; DVS sorption 45% RH to 95%
  Mass uptake on exposure to increasing relative humidity: rather small
[6]; DVS, exposure to 10, 5, and 0% RH, transformation to Form 2
  Mass loss on desorption: approximately 4%
[7]
  Physical stability and hygroscopicity under the tested conditions: physically stable and non-hygroscopic

## Cl.Cl.NCCN[C@H]1CC[C@H](CC(=O)N[C@H]2Cc3cccc(C(=O)O)c3OB2O)CC1 [Form 2, (R)-3-(2-(trans-4-(2-aminoethylamino)cyclohexyl)acetamido)-2-hydroxy-3,4-dihydro-2H-benzo[e][1,2]oxaborinine-8-carboxylic acid dihydrochloride]
[8]
  Relative humidity at which Form 2 converts to Form 1: 25-35 % RH
